These results are taken from patent publication US20080300199A1, “ANTIBACTERIAL 1,4,5-SUBSTITUTED AMINOGLYCOSIDE ANALOGS” (Achaogen Inc., priority 2007, published 2008).

Each structure is given as a SMILES string. In brackets after ≈: the same amount, converted by molar mass. A value given as a limit tells only on which side of the number the result lay.

Type in all cases: cell-based
In one experiment the test system is P. aeruginosa APAE040. Kind of experiment: MIC assay, aminoglycoside-resistant P. aeruginosa APAE040. The settings on record: origin SPRI; for MIC (μg/ml) APAE040: phenotype AAC(3)-I; for MIC: Pseudomonas aeruginosa, APAE040, phenotype AAC(3)-I, read-out: MIC (μg/ml) APAE040. The protocol: (§1) The MIC assays were carried out in 150 μL volume in duplicate in 96-well clear flat-bottom plates. The bacterial suspension from an overnight culture growth in appropriate medium was added to a solution of test compound in 4% DMSO in water. Final bacterial inoculum was approximately 10^5-10^6 CFU/well. The percent growth of the bacteria in test wells relative to that observed for a well containing no compound was determined by measuring absorbance at 595 nm (A595) after 24 h. […] Both ampicillin and tetracycline are used as antibiotic-positive controls in each screening assay for E. coli, S. aureus and K. pneumoniae. Ciprofloxacin is used as an antibiotic-positive control in each screening assay for P. aeruginosa. Amikacin is used as an antibiotic-positive control in each screening assay for A. baumannii. Each of the bacterial cultures that are available from ATCC (www.atcc.org) is identified by its ATCC number.
(§2) MIC assays were carried out as set forth in Example 20 above against certain aminoglycoside-resistant strains of Pseudomonas Aeruginosa.

For the next experiment, the system named is P. aeruginosa APAE042. Kind of experiment: MIC assay, aminoglycoside-resistant P. aeruginosa APAE042. The settings on record: origin SPRI; for MIC (μg/ml) APAE042: phenotype AAC(6′)-II; for MIC: Pseudomonas aeruginosa, APAE042, phenotype AAC(6′)-II, read-out: MIC (μg/ml) APAE042. On the procedure: as §1, §2
Another experiment concerns P. aeruginosa APAE1009. Briefly: MIC assay, aminoglycoside-resistant P. aeruginosa APAE1009. The note with it: origin RJ - Greece; for MIC (μg/ml) APAE1009: phenotype AAC(6′)-I + Efflux; for MIC: Pseudomonas aeruginosa, APAE1009, phenotype AAC(6′)-I + Efflux, read-out: MIC (μg/ml) APAE1009. On the procedure:
as §1, §2

A further experiment has as its system P. aeruginosa APAE1058. Briefly: MIC assay, aminoglycoside-resistant P. aeruginosa APAE1058. The settings on record: origin CF - USA; for MIC (μg/ml) APAE1058: phenotype High level efflux; for MIC: Pseudomonas aeruginosa, APAE1058, phenotype High level efflux, read-out: MIC (μg/ml) APAE1058. The protocol: as §1, §2
The next experiment has as its system P. aeruginosa APAE1068. Briefly: MIC assay, aminoglycoside-resistant P. aeruginosa APAE1068. The note with it: origin Focus - France; for MIC (μg/ml) APAE1068: phenotype AAC(6′)-I + Efflux; for MIC: Pseudomonas aeruginosa, APAE1068, phenotype AAC(6′)-I + Efflux, read-out: MIC (μg/ml) APAE1068. On the procedure:
as §1, §2

A further experiment relates to E. coli ATCC 25922. Kind of experiment: MIC assay, E. coli ATCC 25922. The settings on record: absorbance at 595 nm after 24 h; for MIC: Escherichia coli, ATCC25922, read-out: MIC (μg/ml) E. coli ATCC 25922. On the procedure:
as §1, with “CFU/well.” for “CFU/well. The percent growth of the bacteria in test wells relative to that observed for a well containing no compound was determined by measuring absorbance at 595 nm (A595) after 24 h.”, “Ciprofloxacin is used as an antibiotic-positive control in each screening assay for P. aeruginosa.” left out

The next experiment relates to S. aureus ATCC 29213. Kind of experiment: MIC assay, S. aureus ATCC 29213. The settings on record: absorbance at 595 nm after 24 h; for MIC: Staphylococcus aureus, ATCC29213, read-out: MIC (μg/ml) S. aureus ATCC 29213. On the procedure:
as §1

A further experiment concerns P. aeruginosa ATCC 27853. Kind of experiment: MIC assay, P. aeruginosa ATCC 27853. The settings on record: absorbance at 595 nm after 24 h; for MIC: Pseudomonas aeruginosa, ATCC27853, read-out: MIC (μg/ml) P. aeruginosa ATCC 27853. On the procedure: as §1, with “CFU/well.” for “CFU/well. The percent growth of the bacteria in test wells relative to that observed for a well containing no compound was determined by measuring absorbance at 595 nm (A595) after 24 h.”, “Ciprofloxacin is used as an antibiotic-positive control in each screening assay for P. aeruginosa.” left out

A further experiment has as its system K. pneumoniae ATCC 10031. Kind of experiment: MIC assay, K. pneumoniae ATCC 10031. The settings on record: absorbance at 595 nm after 24 h; for MIC: Klebsiella pneumoniae, ATCC10031, read-out: MIC (μg/ml) K. pneumoniae ATCC 10031. The protocol: as §1
Another experiment relates to A. baumannii ATCC 19606. Briefly: MIC assay, A. baumannii ATCC 19606. The settings on record: absorbance at 595 nm after 24 h; for MIC: Acinetobacter baumannii, ATCC19606, read-out: MIC (μg/ml) A. baumannii ATCC 19606. The protocol:
as §1

Experiment [1] relates to aminoglycoside-resistant Pseudomonas aeruginosa. Kind of experiment: MIC assays against aminoglycoside-resistant strains of Pseudomonas aeruginosa, summary in words. The settings on record: particularly strains expressing efflux-based resistance alone or with AMEs; in comparison to compound 10 and comparative compounds A and B. The protocol: as §1, §2

On to `NCC1CCC(N)C(OC2C(N)CC(N)C(O)C2OC2OC(CO)C(OC3OC(CN)C(O)C(O)C3N)C2O)O1` (centres unmarked) [B, 3′,4′-Di-deoxy-neomycin-B, reference compound], for which, in the experiment with P. aeruginosa APAE040, the “MIC (μg/ml) APAE040” value came out at 1 µg/mL (≈ 1.72 µM). The “MIC (μg/ml) APAE042” value against P. aeruginosa APAE042 was 2 µg/mL (≈ 3.43 µM). For the same molecule, the “MIC (μg/ml) APAE1009” value in the experiment on P. aeruginosa APAE1009 was more than 8 µg/mL. Also, the “MIC (μg/ml) APAE1058” value against P. aeruginosa APAE1058 was more than 8 µg/mL. Besides, the “MIC (μg/ml) APAE1068” value in the experiment on P. aeruginosa APAE1068 worked out at 4 µg/mL.
In the case of `NCC1C=CC(N)C(OC2C(N)CC(N)C(O)C2OC2OC(CO)C(OC3OC(CN)C(O)C(O)C3N)C2O)O1` (centres unmarked) [A, 3′,4′-Di-deoxy-3′,4′-Di-dehydro-neomycin-B, reference compound], the “MIC (μg/ml) APAE040” value with P. aeruginosa APAE040 came to 4 µg/mL (≈ 6.89 µM). In addition, in the experiment on P. aeruginosa APAE042, the “MIC (μg/ml) APAE042” value came out at 4 µg/mL (≈ 6.89 µM). Besides, the “MIC (μg/ml) APAE1009” value with P. aeruginosa APAE1009 was more than 8 µg/mL. Also, the “MIC (μg/ml) APAE1058” value in the experiment on P. aeruginosa APAE1058 was more than 8 µg/mL. Further, the “MIC (μg/ml) APAE1068” value in the experiment with P. aeruginosa APAE1068 amounted to 8 µg/mL.
Take `NCC[C@H](O)C(=O)N[C@@H]1C[C@H](N)[C@@H](O[C@H]2O[C@H](CN)[C@@H](O)[C@H](O)[C@H]2O)[C@H](O)[C@H]1O[C@H]1O[C@H](CO)[C@@H](O)[C@H](N)[C@H]1O` [Amikacin, reference compound]: the MIC was 1 to 8 µg/mL (≈ 1.71 to 13.7 µM) with E. coli ATCC 25922; 1 to 8 µg/mL (≈ 1.71 to 13.7 µM) in the experiment with S. aureus ATCC 29213; 1 to 8 µg/mL (≈ 1.71 to 13.7 µM) with P. aeruginosa ATCC 27853; less than 1 µg/mL with K. pneumoniae ATCC 10031; more than 8 µg/mL with A. baumannii ATCC 19606.
Consider `NCC[C@H](O)C(=O)N[C@@H]1C[C@H](N)[C@@H](O[C@H]2O[C@H](CN)C=C[C@H]2N)[C@H](O[C@@H]2O[C@H](CO)[C@@H](O[C@H]3O[C@@H](CN)[C@@H](O)[C@H](O)[C@H]3N)[C@H]2O)[C@H]1O` [Compound 11], for which the MIC was 1 to 8 µg/mL (≈ 1.47 to 11.7 µM) in the experiment on E. coli ATCC 25922; less than 1 µg/mL with S. aureus ATCC 29213; 1 to 8 µg/mL (≈ 1.47 to 11.7 µM) in the experiment on P. aeruginosa ATCC 27853; less than 1 µg/mL in the experiment with K. pneumoniae ATCC 10031; 1 to 8 µg/mL (≈ 1.47 to 11.7 µM) in the experiment on A. baumannii ATCC 19606; 1 µg/mL (≈ 1.47 µM) with P. aeruginosa APAE040. The MIC in the experiment with P. aeruginosa APAE042 is 0.5 µg/mL (≈ 0.733 µM); with P. aeruginosa APAE1009, 2 µg/mL; in the experiment with P. aeruginosa APAE1058, 16 µg/mL (≈ 23.5 µM); in the experiment on P. aeruginosa APAE1068 it was 2 µg/mL. Besides, the “activity on aminoglycoside-resistant Pseudomonas aeruginosa strains” value in experiment [1] is recorded as “superior activity”.
Regarding `NCC[C@H](O)C(=O)N[C@@H]1C[C@H](N)[C@@H](O[C@H]2O[C@H](CN)CC[C@H]2N)[C@H](O[C@@H]2O[C@H](CO)[C@@H](O[C@H]3O[C@@H](CN)[C@@H](O)[C@H](O)[C@H]3N)[C@H]2O)[C@H]1O` [Compound 10, 3′,4′-Di-deoxy-N-1 haba neomycin], the MIC in the experiment on E. coli ATCC 25922 was less than 1 µg/mL; in the experiment on S. aureus ATCC 29213, less than 1 µg/mL; in the experiment on P. aeruginosa ATCC 27853 it was less than 1 µg/mL; in the experiment on K. pneumoniae ATCC 10031, less than 1 µg/mL; in the experiment on A. baumannii ATCC 19606, 1 to 8 µg/mL (≈ 1.46 to 11.7 µM); with P. aeruginosa APAE040 it was 2 µg/mL (≈ 2.93 µM). Also, the MIC in the experiment on P. aeruginosa APAE042 came to 1 µg/mL (≈ 1.46 µM); in the experiment with P. aeruginosa APAE1009 it was 4 µg/mL; in the experiment on P. aeruginosa APAE1058 it was 32 µg/mL (≈ 46.8 µM); in the experiment with P. aeruginosa APAE1068 it was 8 µg/mL.
Turning to `NCC[C@H](O)C(=O)NC1CC(N)C(OC2OC(CN)CC(O)C2N)C(OC2OC(CO)C(OC3OC(CN)C(O)C(O)C3N)C2O)C1O` (some centres unmarked) [Compound 18, 4′-Deoxy-N-1 haba neomycin], in the experiment on E. coli ATCC 25922, the “MIC (μg/ml) E. coli ATCC 25922” value was “B (MIC's of greater than 1.0 μg/mL to 8.0 μg/mL = B)”. In addition, the “MIC (μg/ml) S. aureus ATCC 29213” value in the experiment on S. aureus ATCC 29213 is reported as “B (MIC's of greater than 1.0 μg/mL to 8.0 μg/mL = B)”. Also, the “MIC (μg/ml) P. aeruginosa ATCC 27853” value against P. aeruginosa ATCC 27853 is “A (MIC's of 1.0 μg/mL or less = A)”. Further, the “MIC (μg/ml) K. pneumoniae ATCC 10031” value against K. pneumoniae ATCC 10031 is “A (MIC's of 1.0 μg/mL or less = A)”. Moreover, the “MIC (μg/ml) A. baumannii ATCC 19606” value in the experiment on A. baumannii ATCC 19606 is on record as “B (MIC's of greater than 1.0 μg/mL to 8.0 μg/mL = B)”.
